Positions of bridges follow the written chain, without caps; N, C: chain ends. Non-standard residues stand in square brackets, D forms with d. Residues, ends and D or L forms follow the SMILES beside them. Phe(4-tBu) = CC(C)(C)c1ccc(C[C@H](N)C(=O)O)cc1; Phe(4-F) = N[C@@H](Cc1ccc(F)cc1)C(=O)O; R8 = C=CCCCCCC[C@@](C)(N)C(=O)O; αMeL = CC(C)C[C@](C)(N)C(=O)O; hLeu = CC(C)CC[C@H](N)C(=O)O; S5 = C=CCCC[C@](C)(N)C(=O)O; Ac6c = NC1(C(=O)O)CCCCC1; Ac5c = NC1(C(=O)O)CCCC1; Aib = CC(C)(N)C(=O)O
How the values were obtained:
[1] = target: Mcl-1 (Homo sapiens, UniProt Q07820); assay: Ki determination for Mcl-1 (BCL-2 family binding spectrum); conditions: read-out: Ki MCL-1
Chain of Mcl-1 (Q07820 whole entry, species assumed): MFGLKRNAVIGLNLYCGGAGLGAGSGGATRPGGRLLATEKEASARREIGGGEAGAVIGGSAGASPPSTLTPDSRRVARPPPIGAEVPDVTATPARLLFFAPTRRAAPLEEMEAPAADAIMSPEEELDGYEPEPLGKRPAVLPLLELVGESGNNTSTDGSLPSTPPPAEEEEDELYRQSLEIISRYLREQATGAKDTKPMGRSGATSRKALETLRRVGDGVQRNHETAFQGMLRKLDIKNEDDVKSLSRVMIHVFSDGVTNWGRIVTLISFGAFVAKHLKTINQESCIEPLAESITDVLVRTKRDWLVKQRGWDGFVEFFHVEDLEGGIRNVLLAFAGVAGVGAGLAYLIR
Summary of the method: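 Competitive fluorescence polarization assay in which compounds displace a fluoresceinated peptidomimetic macrocycle tracer from Mcl-1. Affinity constants were obtained by nonlinear regression.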

[2] = target: Bcl-xL (Homo sapiens, UniProt Q07817); assay: Ki determination for Bcl-xL (BCL-2 family binding spectrum); conditions: read-out: Ki BCL-XL
Chain of Bcl-xL (Q07817 whole entry, species assumed): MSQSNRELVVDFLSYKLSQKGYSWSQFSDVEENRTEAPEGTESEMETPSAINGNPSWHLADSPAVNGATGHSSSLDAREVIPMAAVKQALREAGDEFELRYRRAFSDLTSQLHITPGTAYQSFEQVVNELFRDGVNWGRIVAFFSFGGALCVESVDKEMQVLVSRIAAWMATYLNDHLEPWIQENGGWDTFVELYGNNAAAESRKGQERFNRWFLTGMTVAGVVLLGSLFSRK
Description: To assess the binding and affinity of compounds that antagonize the interaction between a peptide and an acceptor protein, a fluorescence polarization assay (FPA) utilizing a fluoresceinated peptidomimetic macrocycle derived from a peptidomimetic precursor sequence is used, for example. The FPA technique measures the molecular orientation and mobility using polarized light and fluorescent tracer. […] A compound that antagonizes the interaction between the fluoresceinated peptidomimetic macrocycle and an acceptor protein will be detected in a competitive binding FPA experiment.
For example, putative antagonist compounds (1 nM to 1 mM) and a fluoresceinated peptidomimetic macrocycle (25 nM) are incubated with the acceptor protein (50 nM) in binding buffer (140 mM NaCl, 50 mM Tris-HCL, pH 7.4) for 30 minutes at room temperature. Antagonist binding activity is measured, for example, by fluorescence polarization on a luminescence spectrophotometer (e.g. Perkin-Elmer LS50B). Kd values may be determined by nonlinear regression analysis using, for example, Graphpad Prism software (GraphPad Software, Inc., San Diego, Calif.).

Compound | Ki [1] [nM] | Ki [2] [nM]
CC[C@H](C)[C@H](NC(=O)[C@H](Cc1c[nH]c2ccccc12)NC(=O)[C@](C)(CC(C)C)NC(C)=O)C(=O)N[C@@H](C)C(=O)N[C@@H](CCC(N)=O)C(=O)N[C@@H](C)C(=O)N[C@@H](CC(C)C)C(=O)N[C@@H](CCCNC(=N)N)C(=O)N[C@]1(C)CCCCCCC=CCCC[C@@](C)(C(=O)N[C@@H](Cc2ccc(O)cc2)C(=O)N[C@@H](Cc2ccc(O)cc2)C(=O)N[C@@H](C)C(N)=O)NC(=O)[C@H](CC(N)=O)NC(=O)[C@H](Cc2ccccc2)NC(=O)[C@H](C)NC(=O)[C@H](CC(=O)O)NC(=O)CNC(=O)[C@H]([C@@H](C)CC)NC1=O [compound 1705] (Ac-[αMeL]WIAQALR[R8]IGDAFN[S5]YYA-NH2; staple 9-16) | 5.2 | 8.4
CC[C@H](C)[C@H](NC(C)=O)C(=O)N[C@@H](Cc1c[nH]c2ccccc12)C(=O)NC1(C(=O)N[C@@H](C)C(=O)N[C@@H](CCC(N)=O)C(=O)N[C@@H](C)C(=O)N[C@@H](CC(C)C)C(=O)N[C@@H](CCCNC(=N)N)C(=O)N[C@]2(C)CCCCCCC=CCCC[C@@](C)(C(=O)N[C@@H](Cc3ccc(O)cc3)C(=O)N[C@@H](Cc3ccc(O)cc3)C(=O)N[C@@H](C)C(N)=O)NC(=O)[C@H](CC(N)=O)NC(=O)[C@H](Cc3ccccc3)NC(=O)[C@H](C)NC(=O)[C@H](CC(=O)O)NC(=O)CNC(=O)[C@H]([C@@H](C)CC)NC2=O)CCCCC1 [compound 1714] (Ac-IW[Ac6c]AQALR[R8]IGDAFN[S5]YYA-NH2; staple 9-16) |  | 7.7
CC[C@H](C)[C@H](NC(C)=O)C(=O)N[C@@H](Cc1c[nH]c2ccccc12)C(=O)NC1(C(=O)N[C@@H](C)C(=O)N[C@@H](CCC(N)=O)C(=O)N[C@@H](C)C(=O)N[C@@H](CC(C)C)C(=O)N[C@@H](CCCNC(=N)N)C(=O)N[C@]2(C)CCCCCCC=CCCC[C@@](C)(C(=O)N[C@@H](Cc3ccc(O)cc3)C(=O)N[C@@H](Cc3ccc(O)cc3)C(=O)N[C@@H](C)C(N)=O)NC(=O)[C@H](CC(N)=O)NC(=O)[C@H](Cc3ccccc3)NC(=O)[C@H](C)NC(=O)[C@H](CC(=O)O)NC(=O)CNC(=O)[C@H]([C@@H](C)CC)NC2=O)CCCC1 [compound 1715] (Ac-IW[Ac5c]AQALR[R8]IGDAFN[S5]YYA-NH2; staple 9-16) |  | 8.4
CC[C@H](C)[C@H](NC(C)=O)C(=O)N[C@@H](CC(=O)O)C(=O)N[C@H](C(=O)N[C@@H](C)C(=O)N[C@@H](C)C(=O)N[C@@H](C)C(=O)N[C@@H](CC(C)C)C(=O)N[C@@H](CCCNC(=N)N)C(=O)N[C@]1(C)CCCCCCC=CCCC[C@@](C)(C(=O)N[C@@H](Cc2ccc(O)cc2)C(=O)N[C@@H](Cc2ccc(O)cc2)C(=O)N[C@@H](C)C(N)=O)NC(=O)[C@H](CC(N)=O)NC(=O)[C@H](Cc2ccccc2)NC(=O)[C@H](C)NC(=O)[C@H](CC(=O)O)NC(=O)CNC(=O)[C@H]([C@@H](C)CC)NC1=O)[C@@H](C)CC [compound 1725] (Ac-IDIAAALR[R8]IGDAFN[S5]YYA-NH2; staple 9-16) |  | 36.3
CC[C@H](C)[C@H](NC(C)=O)C(=O)N[C@@H](Cc1c[nH]c2ccccc12)C(=O)N[C@H](C(=O)N[C@@H](C)C(=O)N[C@@H](CCC(N)=O)C(=O)N[C@@H](C)C(=O)N[C@@H](CC(C)C)C(=O)N[C@@H](CCCNC(=N)N)C(=O)N[C@]1(C)CCCCCCC=CCCC[C@@](C)(C(=O)N[C@@H](Cc2ccc(O)cc2)C(=O)N[C@@H](Cc2ccc(F)cc2)C(=O)N[C@@H](C)C(N)=O)NC(=O)[C@H](CC(N)=O)NC(=O)[C@H](Cc2ccccc2)NC(=O)[C@H](C)NC(=O)[C@H](CC(=O)O)NC(=O)CNC(=O)[C@H](CCC(C)C)NC1=O)[C@@H](C)CC [compound 1777] (Ac-IWIAQALR[R8][hLeu]GDAFN[S5]Y[Phe(4-F)]A-NH2; staple 9-16) | 27 | 13

Further lines, results first:

Ki [1] [nM] | Ki [2] [nM] | Compound
21.2 | 154 | CC[C@H](C)[C@H](NC(C)=O)C(=O)N[C@@H](Cc1c[nH]c2ccccc12)C(=O)N[C@H](C(=O)N[C@@H](C)C(=O)N[C@@H](CCC(N)=O)C(=O)N[C@@H](C)C(=O)N[C@@H](CC(C)C)C(=O)N[C@@H](CCCNC(=N)N)C(=O)N[C@]1(C)CCCCCCC=CCCC[C@@](C)(C(=O)N[C@@H](Cc2ccc(O)cc2)C(=O)N[C@@H](Cc2ccc(O)cc2)C(=O)N[C@@H](C)C(N)=O)NC(=O)[C@H](CC(N)=O)NC(=O)[C@H](Cc2ccc(C(C)(C)C)cc2)NC(=O)[C@H](C)NC(=O)[C@H](CC(=O)O)NC(=O)CNC(=O)[C@H]([C@@H](C)CC)NC1=O)[C@@H](C)CC [compound 1745] (Ac-IWIAQALR[R8]IGDA[Phe(4-tBu)]N[S5]YYA-NH2; staple 9-16)
 | 25.9 | CC[C@H](C)[C@H](NC(C)=O)C(=O)N[C@@H](Cc1c[nH]c2ccccc12)C(=O)N[C@H](C(=O)N[C@@H](C)C(=O)N[C@@H](C)C(=O)N[C@@H](C)C(=O)N[C@@H](CC(C)C)C(=O)N[C@@H](CCCNC(=N)N)C(=O)N[C@]1(C)CCCCCCC=CCCC[C@@](C)(C(=O)N[C@@H](Cc2ccc(O)cc2)C(=O)N[C@@H](Cc2ccc(O)cc2)C(=O)N[C@@H](C)C(N)=O)NC(=O)[C@H](CC(=O)O)NC(=O)[C@H](Cc2ccccc2)NC(=O)[C@H](C)NC(=O)[C@H](CC(=O)O)NC(=O)CNC(=O)[C@H]([C@@H](C)CC)NC1=O)[C@@H](C)CC [compound 1748] (Ac-IWIAAALR[R8]IGDAFD[S5]YYA-NH2; staple 9-16)
8 | 36.3 | CC[C@H](C)[C@H](NC(C)=O)C(=O)N[C@@H](Cc1c[nH]c2ccccc12)C(=O)N[C@H](C(=O)N[C@@H](C)C(=O)N[C@@H](C)C(=O)N[C@@H](C)C(=O)N[C@@H](CC(C)C)C(=O)N[C@@H](CCCNC(=N)N)C(=O)N[C@]1(C)CCCCCCC=CCCC[C@@](C)(C(=O)N[C@@H](Cc2ccc(O)cc2)C(=O)N[C@@H](Cc2ccc(O)cc2)C(=O)N[C@@H](C)C(N)=O)NC(=O)[C@H](Cc2c[nH]cn2)NC(=O)[C@H](Cc2ccccc2)NC(=O)[C@H](C)NC(=O)[C@H](CC(=O)O)NC(=O)CNC(=O)[C@H]([C@@H](C)CC)NC1=O)[C@@H](C)CC [compound 1752] (Ac-IWIAAALR[R8]IGDAFH[S5]YYA-NH2; staple 9-16)
 | 9 | CC[C@H](C)[C@H](NC(C)=O)C(=O)N[C@@H](Cc1c[nH]c2ccccc12)C(=O)N[C@H](C(=O)N[C@@H](C)C(=O)N[C@@H](CCC(N)=O)C(=O)N[C@@H](C)C(=O)N[C@@H](CC(C)C)C(=O)N[C@@H](CCCNC(=N)N)C(=O)N[C@]1(C)CCCCCCC=CCCC[C@@](C)(C(=O)N[C@@H](Cc2ccc(O)cc2)C(=O)N[C@@H](CC(C)C)C(=O)N[C@@H](C)C(N)=O)NC(=O)[C@H](CC(N)=O)NC(=O)[C@H](Cc2ccccc2)NC(=O)[C@H](C)NC(=O)[C@H](CC(=O)O)NC(=O)CNC(=O)[C@H]([C@@H](C)CC)NC1=O)[C@@H](C)CC [compound 1755] (Ac-IWIAQALR[R8]IGDAFN[S5]YLA-NH2; staple 9-16)
 | > 1000 | CC[C@H](C)[C@H](NC(C)=O)C(=O)N[C@@H](Cc1c[nH]c2ccccc12)C(=O)N[C@H](C(=O)N[C@@H](C)C(=O)N[C@@H](CCC(N)=O)C(=O)N[C@@H](C)C(=O)N[C@@H](CC(C)C)C(=O)N[C@@H](CCCNC(=N)N)C(=O)N[C@]1(C)CCCCCCC=CCCC[C@@](C)(C(=O)N[C@@H](Cc2ccc(O)cc2)C(=O)N[C@@H](Cc2ccc(O)cc2)C(=O)NC(C)(C)C(N)=O)NC(=O)[C@H](CC(N)=O)NC(=O)[C@H](Cc2ccccc2)NC(=O)[C@H](C)NC(=O)[C@H](CC(=O)O)NC(=O)CNC(=O)[C@H]([C@@H](C)CC)NC1=O)[C@@H](C)CC [compound 1770] (Ac-IWIAQALR[R8]IGDAFN[S5]YY[Aib]-NH2; staple 9-16)
 | 9 | CC[C@H](C)[C@H](NC(=O)[C@H](Cc1c[nH]c2ccccc12)NC(=O)[C@H](C)NC(C)=O)C(=O)N[C@@H](C)C(=O)N[C@@H](C)C(=O)N[C@@H](C)C(=O)N[C@@H](CC(C)C)C(=O)N[C@@H](CCCNC(=N)N)C(=O)N[C@]1(C)CCCCCCC=CCCC[C@@](C)(C(=O)N[C@@H](C)C(=O)N[C@@H](Cc2ccc(F)cc2)C(=O)N[C@@H](C)C(N)=O)NC(=O)[C@H](CC(N)=O)NC(=O)[C@H](Cc2ccccc2)NC(=O)[C@H](C)NC(=O)[C@H](CC(=O)O)NC(=O)CNC(=O)[C@H](CCC(C)C)NC1=O [compound 1780] (Ac-AWIAAALR[R8][hLeu]GDAFN[S5]A[Phe(4-F)]A-NH2; staple 9-16)
> 1000 | > 1000 | CC[C@H](C)[C@H](NC(C)=O)C(=O)N[C@@H](Cc1c[nH]c2ccccc12)C(=O)N[C@H](C(=O)N[C@@H](C)C(=O)N[C@@H](CCC(N)=O)C(=O)N[C@@H](C)C(=O)N[C@@H](C)C(=O)N[C@@H](CCCNC(=N)N)C(=O)N[C@]1(C)CCCCCCC=CCCC[C@@](C)(C(=O)N[C@@H](Cc2ccc(F)cc2)C(=O)N[C@@H](Cc2ccc(F)cc2)C(=O)N[C@@H](C)C(N)=O)NC(=O)[C@H](CC(N)=O)NC(=O)[C@H](Cc2ccccc2)NC(=O)[C@H](C)NC(=O)[C@H](CC(=O)O)NC(=O)CNC(=O)[C@H](CCC(C)C)NC1=O)[C@@H](C)CC [compound 1781] (Ac-IWIAQAAR[R8][hLeu]GDAFN[S5][Phe(4-F)][Phe(4-F)]A-NH2; staple 9-16)

— patent US20190185518A9, “WARHEAD-CONTAINING PEPTIDOMIMETIC MACROCYCLES AS MODULATORS OF BFL-1” (AILERON Therapeutics, Inc., priority 2017, published 2019)
